# Measurements as given in ChEMBL document CHEMBL1828558, “Discovery of (+)-N-(3-aminopropyl)-N-[1-(5-benzyl-3-methyl-4-oxo-[1,2]thiazolo[5,4-d]pyrimidin-6-yl)-2-methylpropyl]-4-methylbenzamide (AZD4877), a kinesin spindle protein inhibitor and potential anticancer agent” (J Med Chem, 2011).
# Key:
# [1] = molecular target: T1, Kinesin-like protein KIF11 (Homo sapiens, UniProt P52732); assay: Inhibition of human recombinant C-terminal His6-tagged KSP ATPase activity after 1 hr by malachite green assay
# T1 sequence (P52732 whole entry): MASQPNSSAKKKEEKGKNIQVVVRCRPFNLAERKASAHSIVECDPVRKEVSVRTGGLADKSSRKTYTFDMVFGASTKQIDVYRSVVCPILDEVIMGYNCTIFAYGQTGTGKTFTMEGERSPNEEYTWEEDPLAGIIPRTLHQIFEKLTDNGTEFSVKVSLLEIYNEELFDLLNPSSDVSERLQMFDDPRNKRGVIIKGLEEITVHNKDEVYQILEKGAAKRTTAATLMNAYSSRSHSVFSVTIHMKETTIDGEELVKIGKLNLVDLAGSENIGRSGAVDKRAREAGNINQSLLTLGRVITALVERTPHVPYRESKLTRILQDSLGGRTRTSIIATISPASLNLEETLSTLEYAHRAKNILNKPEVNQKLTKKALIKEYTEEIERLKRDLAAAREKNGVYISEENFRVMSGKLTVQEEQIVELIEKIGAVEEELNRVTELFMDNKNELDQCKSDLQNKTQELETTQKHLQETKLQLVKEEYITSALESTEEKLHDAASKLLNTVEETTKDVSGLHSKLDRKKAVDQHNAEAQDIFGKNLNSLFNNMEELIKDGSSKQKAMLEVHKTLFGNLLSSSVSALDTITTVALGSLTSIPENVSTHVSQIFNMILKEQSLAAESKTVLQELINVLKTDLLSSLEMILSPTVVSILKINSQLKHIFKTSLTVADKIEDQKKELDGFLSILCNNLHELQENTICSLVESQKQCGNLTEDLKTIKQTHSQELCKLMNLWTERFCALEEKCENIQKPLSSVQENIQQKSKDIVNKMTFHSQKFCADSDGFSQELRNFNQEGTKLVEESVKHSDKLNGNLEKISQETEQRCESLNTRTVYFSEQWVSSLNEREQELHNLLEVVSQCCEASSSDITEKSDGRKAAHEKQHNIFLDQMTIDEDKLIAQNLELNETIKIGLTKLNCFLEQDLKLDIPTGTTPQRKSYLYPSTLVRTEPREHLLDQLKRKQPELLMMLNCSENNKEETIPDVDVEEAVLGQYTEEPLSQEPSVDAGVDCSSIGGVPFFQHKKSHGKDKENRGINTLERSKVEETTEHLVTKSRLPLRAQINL
# Liver = assay: Intrinsic clearance in Wistar rat hepatocytes at 2 uM; format: ADME, cell-based, Hepatocyte
# Cytochrome P450 3A4 = Cytochrome P450 3A4 (Homo sapiens, UniProt P08684); assay: Inhibition of human recombinant CYP3A4; format: ADME
# COLO 205 = assay: Anticancer activity against human COLO205 cells after 72 hrs by MTS/PMS assay; format: functional, cell-based; settings: colo 205
# [2] = Volume of distribution at steady state in Wistar rat at 6 mg/kg, iv administered as a single bolus dose; format: ADME, organism-based; design: dose 6 mg/kg, route intravenous; settings: in vivo, read-out: Vdss
# Cytochrome P450 1A2 = molecular target: T2, Cytochrome P450 1A2 (Homo sapiens, UniProt P05177); assay: Inhibition of human recombinant CYP1A2; format: ADME
# T2 sequence (P05177 whole entry): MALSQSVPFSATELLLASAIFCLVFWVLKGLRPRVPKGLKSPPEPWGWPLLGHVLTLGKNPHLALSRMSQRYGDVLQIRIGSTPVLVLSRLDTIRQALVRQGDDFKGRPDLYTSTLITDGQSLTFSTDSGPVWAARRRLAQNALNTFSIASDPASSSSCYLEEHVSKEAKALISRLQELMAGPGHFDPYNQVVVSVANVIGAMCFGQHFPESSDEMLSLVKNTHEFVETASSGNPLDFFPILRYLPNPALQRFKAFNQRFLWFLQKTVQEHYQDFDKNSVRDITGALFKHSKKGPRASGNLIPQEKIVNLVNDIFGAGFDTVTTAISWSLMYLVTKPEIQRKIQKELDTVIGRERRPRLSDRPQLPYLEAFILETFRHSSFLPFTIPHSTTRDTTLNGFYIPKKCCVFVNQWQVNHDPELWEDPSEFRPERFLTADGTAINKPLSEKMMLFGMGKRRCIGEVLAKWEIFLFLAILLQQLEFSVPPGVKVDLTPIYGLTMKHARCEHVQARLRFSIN
# Cytochrome P450 3A4, sequence (P08684 whole entry): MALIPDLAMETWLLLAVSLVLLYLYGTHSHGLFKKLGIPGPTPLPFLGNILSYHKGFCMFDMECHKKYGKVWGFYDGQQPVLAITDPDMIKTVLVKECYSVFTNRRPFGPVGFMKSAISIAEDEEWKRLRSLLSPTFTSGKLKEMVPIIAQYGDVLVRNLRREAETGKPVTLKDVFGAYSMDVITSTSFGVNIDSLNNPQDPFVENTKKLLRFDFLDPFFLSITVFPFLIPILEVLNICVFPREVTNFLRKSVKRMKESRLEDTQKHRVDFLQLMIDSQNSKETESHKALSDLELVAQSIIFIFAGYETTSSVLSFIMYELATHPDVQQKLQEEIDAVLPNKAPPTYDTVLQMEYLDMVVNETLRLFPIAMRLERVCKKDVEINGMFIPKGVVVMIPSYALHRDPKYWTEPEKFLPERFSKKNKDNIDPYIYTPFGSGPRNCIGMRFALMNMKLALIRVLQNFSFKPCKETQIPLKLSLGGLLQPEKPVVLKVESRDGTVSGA
compound,measurement,setting,value
"Cc1ccc(C(=O)N(CCCN)C(c2nc3snc(C)c3c(=O)n2Cc2ccccc2)C(C)C)cc1 (single isomer, unassigned; (+)) [AZD-4877]",IC50,[1],2 nM
same,CL,Liver,4 µL/min
same,IC50,Cytochrome P450 3A4,> 10000 nM
same,IC50,COLO 205,3 nM
same,Vd,[2],10 L/kg
same,IC50,Cytochrome P450 1A2,> 10000 nM
